In data set [1] the test system is Candida albicans. Nature of the data set: Radial diffusion assay. The note with it: for antimicrobial activity against C. albicans (diameter of inhibition zones): 4 µg peptide, variants compared with RGKAKCCK (Fig. 1E,F, Fig. 2A). In kind it is cell-based. As for the experimental part: (§1) Antimicrobial radial diffusion assay was modified from reference[17] and performed as described earlier. Briefly, microorganisms were cultivated (anaerobic bacteria with AnaeroGen, Oxoid, UK) for up to 18 hours in liquid TSB medium. Log-phase cultures were washed and diluted to 4 × 10^6 colony forming units in 10 ml agar. Incubation was carried out in 10 ml of 10 mM sodium phosphate, either pH 7.4 or 5.7, containing 0.3 mg/ml of TSB powder and 1% (w/v) low EEO-agarose (AppliChem) with 0 or 1 mM dithiothreitol (DTT, Sigma-Aldrich) under anaerobic or aerobic conditions for three hours. 1 or 4 µg of synthetic, oxidized hBD-1 (Peptide Institute, Japan) and 1 or 4 µg of synthetic peptides (EMC Microcollections, Tuebingen) were filled into small punched wells in a final volume of 4 µl. This concentrated peptide solution dilutes while diffusing into the gel, thereby generating concentration-dependent, round-shaped inhibition zones when killing immobilized microorganisms.
(§2) An overlay-gel containing 6% (w/v) TSB powder, 1% agarose and 10 mM sodium phosphate buffer without DTT was poured onto the plates and after incubation for up to 48 h at 37 °C the diameter of inhibition zones was measured. Experiments were repeated at least three times; mean + SEM is shown.

Data set [2] concerns Escherichia coli. The data set can be described thus: Radial diffusion assay. In kind it is cell-based. To be noted: for antimicrobial activity against E. coli (diameter of inhibition zones): 4 µg peptide, variants compared with RGKAKCCK (Fig. 1E,F, Fig. 2A). As for the experimental part:
as §1, §2

Data set [3] has as its system E. coli ATCC 25922. The data set can be described thus: Broth microdilution assay (turbidity and CFU). The data set is classed as cell-based, Escherichia coli. To be noted: 100 µg/ml peptide, 2 hours at 37 °C, plated on agar (Fig. 2D). As for the experimental part: To differentiate between microbistatic and microbicidal activity we performed a broth microdilution assay. For that, E. coli ATCC25922 bacteria were incubated overnight at 37 °C, 150 rpm. C. albicans ATCC 10231 was grown at 30 °C overnight, 150 rpm in liquid TSB. Cells were collected by centrifugation (2500 rpm, 10 min, 4 °C), washed twice and resuspended in 10 mM sodium phosphate buffer containing 1% (w/v) TSB broth. Required C. albicans cell density was adjusted using a hemocytometer. For bacteria the optical density of OD600nm = 0.1 was determined. Approximately 5 × 10^5 CFU/ml bacteria or fungi were mixed with indicated peptide concentrations (1.25–200 µg/ml) in a final volume of 100 µl in 10 mM sodium phosphate buffer containing 1% (w/v) TSB broth and incubated for 2 hours at 37 °C. After incubation 10 µl per well were plated on LB-/ or YPD-agar plates to determine the CFU/ml. After that 100 µl of 6% TSB (w/v) were added and absorbance was measured at 600 nm (Tecan, Switzerland) and monitored for 18 hours. Growth relative to the positive control in % was plotted against peptide concentration. Experiments were carried out at least three times; mean ± SEM is shown.
On the technique in general: In broth dilution the organism is exposed to a series of concentrations in liquid medium.

The test system of data set [4] is C. albicans SC5314. Nature of the data set: Model of oral candidiasis: RHOE infected with C. albicans. The note with it: RHOE preincubated 1 h with 50 µg/ml peptide, infected with C. albicans for 24 h; for fungal load / invasion of the epithelium: histology (Fig. 5A). The data set is classed as cell-based, Candida albicans. The protocol:
Octapeptides were diluted to 50 µg/ml in PBS, or an equivalent volume of 0.01% acetic acid were applied to the apical side of the RHOEs and incubated for 1 h. C. albicans SC5314 was synchronized as described previously. Yeast cells were washed three times in PBS and 1 × 10^5 CFU were used for infection of pre-treated RHEs. After 24 h RHEs were fixed with Karnovsky’s fixative. Post-fixed samples (1% OsO4, 1 h) were rinsed with distilled water, block-stained with uranyl acetate (2% in distilled water), dehydrated in alcohol (stepwise 30–96%), immersed in propylene oxide and embedded in glycide ether (polymerized 48 h at 60 °C, Serva, Heidelberg). Semi-thin sections were stained with toluidine blue and examined with a Nikon Eclipse 80i light microscope (magnification 1:400). Afterwards, fungal cells were simply coloured in red.

Data set [5] deals with Bifidobacterium adolescentis. Nature of the data set: Radial diffusion assay. The data set is classed as cell-based. To be noted: 10 mM sodium phosphate, 1 or 4 µg peptide per well, at least three experiments (Fig. 1D). As for the experimental part: as §1, §2
Data set [6] concerns Bifidobacterium breve. The data set can be described thus: Radial diffusion assay. To be noted: 1 or 4 µg peptide per well (Fig. 1D). The data set is classed as cell-based. As for the experimental part:
as §1, §2

Data set [7] relates to Pseudomonas aeruginosa. Nature of the data set: Radial diffusion assay. In kind it is cell-based. The note with it: P. aeruginosa ATCC type strain (Figs 1D, 2A). As for the experimental part:
as §1, §2

For data set [8], the system named is Streptococcus salivarius ssp. thermophilus. The data set can be described thus: Radial diffusion assay. The data set is classed as cell-based. The note with it: 1 or 4 µg peptide per well, at least three experiments (Fig. 1D). As for the experimental part: as §1, §2
Data set [9] concerns selected commensal and pathogenic microorganisms. Nature of the data set: Radial diffusion assay, semi-quantitative evaluation on a molar base. In kind it is cell-based. The note with it: 4 µg reduced hBD-1 equivalent to 254 µM, 1 µg octapeptide equivalent to 280 µM in the RDA. The protocol: as §1, §2
Data set [10] has as its system antibiotic-resistant bacteria. The data set can be described thus: Radial diffusion assay, drug-resistant clinical isolates overall. The data set is classed as cell-based. The note with it: 4 µg peptide, direct comparison of the four peptides (Fig. 2B). As for the experimental part: as §1, §2
Data set [11] relates to E. coli ATCC 25922. Nature of the data set: Flow cytometric assay, propidium iodide uptake. The data set is classed as cell-based, Escherichia coli. To be noted: 100 µg/ml peptide, 1 h, flow cytometry, at least three experiments (Fig. 3A). As for the experimental part: (§3) Approximately 1.5 × 10^6 CFU log-phase bacteria or overnight cultured C. albicans ATCC 10231 were used in a final volume of 100 µl TSB (1:6 diluted H2O). We added peptides in concentrations 50 and 100 µg/ml in a final volume of 10 µl and incubated theses suspensions for 1 h at 37 °C. Subsequently 2 µl of membrane potential sensitive dye DiBAC4(3) [bis-[1,3-dibutylbarituric acid)trimethine oxonol] (Thermo Scientific, USA) (50 µg/ml) or Propidium Iodide (Thermo Scientific, USA) (50 µg/ml) were added and incubated for 10 min at room temperature. Then samples were centrifuged (5 min, 7000 rpm, RT) and re-suspended in 300 µl PBS. The percentage of fluorescent positive cells was determined using Canto II flow cytometer (BD Bioscience) with DIVA software (BD Bioscience) as described earlier. Experiments were repeated at least three times and mean +/− SEM is shown.

Data set [12] has as its system C. albicans ATCC 10231. The data set can be described thus: Flow cytometric assay, propidium iodide uptake. The data set is classed as cell-based, Candida albicans. To be noted: 100 µg/ml peptide, 1 h, flow cytometry (Fig. 3A). The protocol: as §3
(In general: In flow cytometry, cells or beads pass a laser one at a time.)

Data set [13] is classed as in vitro ADME, human. To be noted: pH 6.5. As for the experimental part:
(§4) 2 µg of oxidized or reduced hBD-1 were digested with pepsin or chymotrypsin at a protease: peptide ratio of 1:20 in HCl-acidified water, pH 3 (pepsin) or 10 mM sodium phosphate, pH 7.4 (chymotrypsin) for 90 min. Human duodenal secretion (pH 6.5–7) was taken during a routine gastroscopy by rinsing the duodenum with saline. Oxidized and reduced hBD-1 were incubated with human duodenal secretion for 30 min at 37 °C. As a control both peptides were incubated with 0.9% NaCl. Peptides were enriched with ZipTip (Millipore), co-crystallized with a-cyano-4-hydroxy cinnamic acid and analyzed with an ultraflex TOF/TOF machine (Bruker, Germany).

Data set [14] concerns trypsin. To be noted: cited from earlier work. The text has this:
Due to their ancient evolutionary origin and the strong demand for novel antimicrobial strategies, AMPs have been considered as potential antibiotic drug candidates. Mainly because they target “Achilles heels” of microorganisms, only few resistance mechanisms have been evolved over long time[14],[15]. Still, large-scale chemical synthesis of defensins containing three native disulphide-bridges has been a challenge and rendered the production expensive. Accordingly, the production of smaller, but yet antibiotic, fragments of defensins without disulphide bridges is a promising option. We have sh ...

Data set [15] deals with pepsin. The data set can be described thus: Protease digestion with pepsin, fragments analysed by MALDI-MS. The data set is classed as in vitro ADME. The note with it: 2 µg peptide, protease:peptide 1:20, HCl-acidified water pH 3, 90 min. The protocol:
as §4

Data set [16] deals with chymotrypsin. Nature of the data set: Protease digestion with chymotrypsin, fragments analysed by MALDI-MS. In kind it is in vitro ADME. The note with it: 2 µg peptide, protease:peptide 1:20, 10 mM sodium phosphate pH 7.4, 90 min. As for the experimental part: as §4
[17] abbreviates: 1 or 4 µg peptide per well, at least three experiments (Fig. 1D).

Where a SMILES comes first, the peptide text is derived from it. Where no end group is shown, it is not given here.

This is an account of results in publication PMC6403363, “Proteolytic Degradation of reduced Human Beta Defensin 1 generates a Novel Antibiotic Octapeptide” (Scientific Reports, 2019).

For “RGKAKAAK [octapeptide with both cysteines replaced]”, the “antimicrobial activity against C. albicans (diameter of inhibition zones)” value in data set [1] is reported as “completely abolished activity”. Moreover, in data set [2], the “antimicrobial activity against E. coli (diameter of inhibition zones)” value was “completely abolished activity”.

For `CC(=O)N[C@@H](CCCNC(=N)N)C(=O)NCC(=O)N[C@@H](CCCCN)C(=O)N[C@@H](C)C(=O)N[C@@H](CCCCN)C(=O)N[C@@H](CS)C(=O)N[C@@H](CS)C(=O)N[C@@H](CCCCN)C(N)=O` [Ac-RGKAKCCK-NH2] (Ac-RGKAKCCK-NH2), in data set [3], the “decrease in CFU of E. coli compared to untreated controls” value was “more than 100 fold”. Also, the “fungal load / invasion of the epithelium” value in [4] is recorded as “invaded the whole epithelium”.

As to “RGKAKCAK [octapeptide with Cys7 replaced by alanine]”, the “antimicrobial activity against C. albicans (diameter of inhibition zones)” value in data set [1] is given as “strongly decreased activity”. Moreover, in data set [2], the “antimicrobial activity against E. coli (diameter of inhibition zones)” value is listed as “increased”.

For `C[C@H](NC(=O)[C@H](CCCCN)NC(=O)CNC(=O)[C@@H](N)CCCNC(=N)N)C(=O)N[C@@H](CCCCN)C(=O)N[C@@H](CS)C(=O)N[C@@H](CS)C(=O)N[C@@H](CCCCN)C(=O)O` [RGKAKCCK] (H-RGKAKCCK-OH), the “antimicrobial activity (diameter of inhibition zones)” value in [5] is recorded as “convincing activity”; in [1] (setting [17]), “convincing activity”; in data set [2] (setting [17]) it was “convincing activity”; in data set [7], “neglectable antibiotic activity”; in data set [8], “convincing activity”. The “antimicrobial activity (inhibition zones)” value in data set [6] was “no inhibition zones”. Also, the “activity on a molar base compared with the full length-peptide” value in [9] is reported as “less potent”. Also, in data set [10], the “spectrum against the tested antibiotic-resistant bacteria” value is recorded as “inhibited growth of the most tested antibiotic-resistant bacteria”. Also, the “decrease in CFU of E. coli compared to untreated controls” value in [3] was “more than 100 fold”. Moreover, in [11], the “PI uptake / bacterial killing (cell death) of E. coli” value is on record as around 100%. In addition, the “PI uptake of C. albicans” value in [12] is “up to 60%”. In addition, the epithelial damage entry in [4] (blinded scale 0 to 5 (Fig. 5B)) was “ameliorated epithelial damage”. Moreover, the “fungal load / invasion of the epithelium” value in data set [4] is on record as “convincingly reduced the fungal load”.

Take “RGKAKACK [octapeptide with Cys6 replaced by alanine]”: the “antimicrobial activity against C. albicans (diameter of inhibition zones)” value in [1] is “strongly decreased activity”. The “antimicrobial activity against E. coli (diameter of inhibition zones)” value in [2] is on record as “increased”.

“AGAAKCCK [variant lacking Arg1 and Lys3]”: the “antimicrobial activity against C. albicans (diameter of inhibition zones)” value in data set [1] was “completely inactive”. Also, in [2], the “antimicrobial activity against E. coli (diameter of inhibition zones)” value is “completely inactive”.

In the case of “DHYNCVSSGGQCLYSACPIFTKIQGTCYRGKAKCCK [reduced hBD-1, hBD-1 after reduction of its three disulphide bridges, a linear peptide]”, the “digestion by human duodenal secretion (generation of fragment m/z 893.5)” value in data set [13] was “generated a fragment having an m/z of 893.5”. Further, the “antimicrobial activity (inhibition zones)” value in data set [6] is “inhibited its growth”. Moreover, the “degradation by the intestinal protease trypsin” value in data set [14] is “can be degraded”.

Consider “DHYNCVSSGGQCLYSACPIFTKIQGTCYRGKAKCCK (disulfide (positions not given here)) [oxidized hBD-1, host-defense peptide human beta-defensin 1 with three disulphide bridges]”, for which, in [15], the “proteolytic susceptibility towards pepsin” value is given as “protease resistant”. Further, the “proteolytic susceptibility towards chymotrypsin” value in data set [16] is reported as “protease resistant”. Besides, in data set [6], the “antimicrobial activity (inhibition zones)” value is “no inhibition zones”.

For the compound AGKAKCCK [variant lacking Arg1], the “antimicrobial activity against C. albicans (diameter of inhibition zones)” value in data set [1] was “completely inactive”. Moreover, the “antimicrobial activity against E. coli (diameter of inhibition zones)” value in [2] was “completely inactive”.
